One experiment deals with EAE. Conditions: Shijie et al. 2009; cited from earlier work.
Another experiment concerns EAE in rats. The following applies: direct application (Smith et al.); cited from earlier work.
The test system of a further experiment is inflammation. Conditions: EAE (Pitt et al.); cited from earlier work.
For another experiment, the system named is activated T-cells. The following applies: Pitt et al.; cited from earlier work.
For the next experiment, the system named is EAE mice. Conditions: EAE mice (Fazio et al. 2008); cited from earlier work.
The target in a further experiment is T1, GAPDH (Rattus norvegicus, UniProt P04797).
T1 construct: Rat hippocampus was homogenized in 50 mM Tris-HCl (pH 7.5); from tissue; host or cells: rat hippocampus homogenate
In words: Pull-down affinity assay of GluR2-GAPDH interaction. Format: binding. Conditions: solubilized rat hippocampal tissue, approximately 100 μg GST-fusion protein. As to the method: Desired DNA sequences of the GluR2 N-terminus were obtained by polymerase chain reaction. The DNA sequences were digested with BamHI and Xhol enzymes to create sticky ends and subsequently incorporated into GST-plasmids (pGEX4T3) through DNA ligation. Following ligation, transformation with DH5a competent cells was performed to amplify the plasmid content. Subsequently, the plasmids were extracted and subjected to sequence confirmation. Having the desired DNA sequences confirmed, the GST-fusion proteins were expressed through the transformation with another strain of competent cells (i.e. BL21). The GST-fusion proteins were then precipitated and purified through glutathione resin (from Genescript).
Rat hippocampus was homogenized in 50 mM Tris-HCl (pH 7.5), 150 mM NaCl, 1% NP-40, 0.5% sodium deoxycholate, 1 mM EDTA, 10% Triton X-100, 1 mM PMSF and protease inhibitor cocktail (Sigma, 5 microl per 100 mg tissue). The hippocampal tissue was further solubilized with 1% Triton X-100 and then centrifuged at 14,000 rpm at 4° C. for 15 mins The solubilized hippocampal tissue (approximately 1 milligram of protein) was incubated with glutathione resin (Genescript) and indicated GST-fusion proteins (approximately 100 μg) at 4° C. overnight and followed by an hour of incubation at room temperature. After the incubation, the samples were washed 4-6 times with 1 mL PBS contained 0.1% Triton X-100. […]

In another experiment the test system is oligodendrocytes. The experiment in a line: CNPase- and CC1-labeled oligodendrocytes in EAE mouse spinal cord. The following applies: EAE mice, dorsal regions of spinal cord; compared to sham. Format: in vivo. As to the method: (§1) Frozen coronal sections of EAE mice spinal cord (10 μm) thickness were cut using a microtome cryostat system (Bright Instruments 5030). All sections were initially incubated in blocking solution (0.1 m PBS, 1% Triton X-100, 0.5% Tween 20, 2% skim milk) or serum-free protein block (Dako Cytomation) for 1 h at room temperature to reduce nonspecific background and then incubated with primary and secondary antibodies overnight at 4° C. The following primary antibodies were used: anti-Iba1 (1:200; Dako), anti-Neurofilament H (1:200), anti-CC1, anti-CNPase (1:200), and anti-NeuN (1:200). Fluorescent secondary antibodies conjugated to Alexa 488 or Rhodamine Red-X (1:200; Invitrogen) or Cy3 (1:100; Jackson ImmunoResearch Laboratories) were used for detection of primary antibodies.

A further experiment relates to myelin. The experiment in a line: Luxol Fast Blue staining of myelin in EAE mouse spinal cord. Type of experiment: in vivo. The following applies: EAE mice spinal cord; compared to sham. As to the method:
At day 30, mice were sacrificed by overdose anesthesia, and the spinal cord was dissected for co-immunoprecipitation analysis. For analysis of central nervous system infiltrates, brain and spinal cord tissues were collected and mononuclear cells were prepared by Percoll gradient centrifugation. For immunological analysis, splenocytes cells were dissected and cultured in vitro. For histological analysis, the same tissue samples were immediately fixed in 4% (wt/vol) paraformaldehyde. Frozen sections of spinal cord were stained with Luxol fast blue for analysis of […].

A further experiment deals with neurofilament-H. In words: Neurofilament-H immunostaining, axonal density in EAE mouse spinal cord. Format: in vivo. The following applies: EAE mice spinal cord; compared to sham. As to the method: as §1
For the next experiment, the system named is Iba1+ cells. The experiment in a line: Iba1 immunolabeling of macrophages/microglia in EAE mouse spinal cord. Type of experiment: in vivo. The following applies: EAE mice; compared to sham. As for the experimental part: as §1
As MS is closely associated with inflammation and autoimmunity, the TAT-G-Gpep peptide was tested to determine if it affects microglial/macrophage recruitment.

In a further experiment the test system is cytokines. The experiment in a line: Bioplex, cytokine profiles in cultured spleenocytes re-stimulated with MOG35-55. Format: in vivo, mice. Conditions: vs the other two groups. As to the method: Cytokine measurement was performed by Bioplex Protein Array (Bio-Plex Pro™ Mouse Cytokine 23-plex Assay) from Bio-Rad as per manufacturer's instruction. EAE mice serum, culture supernatant of spleenocytes in different treatment groups and supernatant of brain infiltrated leukocyte culture were used for bioplex protein array in duplicates. The standard curves were optimized automatically by the software (Bioplex manager) and verified manually. The Bioplex manager software was used to calculate cytokine concentrations. Data is expressed as Mean±SEM.

For the next experiment, the system named is GluR2-GAPDH interaction. The following applies: previously shown (PCT/CA2007/001539); cited from earlier work.
A further experiment has as its system hippocampal neurons. The following applies: animal models of ischemic stroke; previously shown (PCT/CA2007/001539); cited from earlier work.

These results are taken from US9518104B2, “Compositions and methods for treating multiple sclerosis” (Centre for Addiction and Mental Health, priority 2012, dated 2016).

Where no end group is shown, it is not given here.

T1 sequence (P04797 whole entry): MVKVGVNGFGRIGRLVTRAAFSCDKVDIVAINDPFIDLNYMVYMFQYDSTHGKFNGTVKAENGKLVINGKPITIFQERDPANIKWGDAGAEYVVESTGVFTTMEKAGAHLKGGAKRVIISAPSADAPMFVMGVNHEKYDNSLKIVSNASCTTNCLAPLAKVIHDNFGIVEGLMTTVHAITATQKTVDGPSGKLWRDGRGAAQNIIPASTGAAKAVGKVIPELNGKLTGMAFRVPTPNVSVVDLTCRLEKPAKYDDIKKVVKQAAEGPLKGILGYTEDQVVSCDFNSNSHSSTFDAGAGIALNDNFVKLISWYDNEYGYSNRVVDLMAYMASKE
Sequence of GluR2-GAPDH interaction (P04406 whole entry, the tested form may be a part): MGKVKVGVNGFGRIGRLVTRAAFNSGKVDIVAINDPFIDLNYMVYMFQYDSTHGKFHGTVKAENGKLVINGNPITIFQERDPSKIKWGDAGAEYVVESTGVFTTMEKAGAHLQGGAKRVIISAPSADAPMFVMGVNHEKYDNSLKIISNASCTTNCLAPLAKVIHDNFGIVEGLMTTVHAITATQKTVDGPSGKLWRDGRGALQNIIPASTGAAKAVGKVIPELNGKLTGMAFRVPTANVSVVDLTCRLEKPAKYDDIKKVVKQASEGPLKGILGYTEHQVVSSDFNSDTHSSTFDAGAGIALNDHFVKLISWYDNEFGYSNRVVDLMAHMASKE

On to `[N-]=[N+]=CC(=O)CC[C@H](N)C(=O)O` [DON, 6-diazo-5-oxo-L-norleucine], for which the “neurological effects of EAE” value in the experiment on EAE was “attenuated”. `O=c1[nH]c2cc(C(F)(F)F)c(N3CCOCC3)cc2n(CP(=O)(O)O)c1=O` [MPQX]: the “acute and chronic neurological effects of EAE” value with EAE in rats is “reduces the acute and chronic neurological effects of EAE”. With `NS(=O)(=O)c1cccc2c1c([N+](=O)[O-])cc1nc(O)c(O)nc12` [NBQX], in the experiment on EAE in rats, the “acute and chronic neurological effects of EAE” value was “reduces the acute and chronic neurological effects of EAE”. The amount of inflammation result in the experiment on inflammation is “did not reduce”. Further, in the experiment with activated T-cells, the “in vitro proliferation of activated T-cells” value is “did not reduce”. For `O=C(Nc1nc(C(F)(F)F)co1)C1c2ccccc2Oc2ccccc21` [RO0711401], the motor coordination entry in the experiment on EAE mice was “improves motor coordination”.

Regarding `CC1(C)[C@@H](OC(=O)CCC(=O)O)CC[C@]2(C)[C@H]3C(=O)C=C4[C@@H]5C[C@@](C)(C(=O)O)CC[C@]5(C)CC[C@@]4(C)[C@]3(C)CC[C@@H]12` [carbenoxolone], the “neurological effects of EAE” value in the experiment with EAE is “attenuated”. For “GST alone: glutathione S-transferase alone, negative control”, the “precipitation (pull down) of GAPDH” value with GAPDH is listed as “neither the GST alone nor the GST-fusion protein containing fragment 1 (Tyr142-Leu161 (SEQ ID NO:7)) sufficed to “pull down” GAPDH”. “GST-Fragment 2: GST fusion protein of fragment 2, Asp153-Lys172 of GluR2 N-terminus, DSDRGLSTLQAVLDSAAEKK (SEQ ID NO:5) (also: GST fusion protein)”: in the experiment with GAPDH, the “precipitation (pull down) of GAPDH” value is recorded as “able to precipitate GAPDH”. Regarding “YGRKKRRQRRRAFDLSQYDLKWQVDYLKYDYGTASELRASA (G-Gpep-sc or G-Gpep-scrambled) [TAT-G-Gpep-sc, scrambled G-Gpep control peptide fused to TAT domain]”, the “number of CNPase- and CC1-labeled oligodendrocytes” value in the experiment on oligodendrocytes is listed as “significantly lower”. Further, in the experiment on myelin, the “demyelination (myelin in the ventral funiculus)” value was “Significant demylenation”. For the same compound, in the experiment with neurofilament-H, the “area occupied by neurofilament-H” value is reported as “significantly lower”. Moreover, the “number of Iba1+ cells in the dorsal and ventral horns” value in the experiment with Iba1+ cells was “significantly more macrophages/microglia”. As for “YYQWDKFAYLYDSDRGLSTLQAVLDSAAEKK (GluR2 NT1-3-2) [G-Gpep, interfering peptide, GluR2 NT1-3-2 (Y142-K172)]”, the “immunoreactivity of spleenocytes (most cytokines)” value in the experiment on cytokines is reported as “significantly suppressed”. Besides, in the experiment with GluR2-GAPDH interaction, the “disruption of GluR2-GAPDH interactions” value was “capable of disrupting GluR2-GAPDH interactions”. Besides, the “protection of neurons from ischemia-induced cell death” value in the experiment with hippocampal neurons is recorded as “protecting neurons from ischemia-induced cell death”.
